Our source for the IC50 values is patent US20200405697A1, “Antitumor Agent” (Taiho Pharmaceutical Co., Ltd, priority 2017, published 2020).

The target in this assay is T1, human RNR (histidine tagged human M1 and human M2 proteins) (Homo sapiens, UniProt P23921).
T1 construct: made in house; host or cells: Escherichia coli
T1 sequence (P23921 1-792): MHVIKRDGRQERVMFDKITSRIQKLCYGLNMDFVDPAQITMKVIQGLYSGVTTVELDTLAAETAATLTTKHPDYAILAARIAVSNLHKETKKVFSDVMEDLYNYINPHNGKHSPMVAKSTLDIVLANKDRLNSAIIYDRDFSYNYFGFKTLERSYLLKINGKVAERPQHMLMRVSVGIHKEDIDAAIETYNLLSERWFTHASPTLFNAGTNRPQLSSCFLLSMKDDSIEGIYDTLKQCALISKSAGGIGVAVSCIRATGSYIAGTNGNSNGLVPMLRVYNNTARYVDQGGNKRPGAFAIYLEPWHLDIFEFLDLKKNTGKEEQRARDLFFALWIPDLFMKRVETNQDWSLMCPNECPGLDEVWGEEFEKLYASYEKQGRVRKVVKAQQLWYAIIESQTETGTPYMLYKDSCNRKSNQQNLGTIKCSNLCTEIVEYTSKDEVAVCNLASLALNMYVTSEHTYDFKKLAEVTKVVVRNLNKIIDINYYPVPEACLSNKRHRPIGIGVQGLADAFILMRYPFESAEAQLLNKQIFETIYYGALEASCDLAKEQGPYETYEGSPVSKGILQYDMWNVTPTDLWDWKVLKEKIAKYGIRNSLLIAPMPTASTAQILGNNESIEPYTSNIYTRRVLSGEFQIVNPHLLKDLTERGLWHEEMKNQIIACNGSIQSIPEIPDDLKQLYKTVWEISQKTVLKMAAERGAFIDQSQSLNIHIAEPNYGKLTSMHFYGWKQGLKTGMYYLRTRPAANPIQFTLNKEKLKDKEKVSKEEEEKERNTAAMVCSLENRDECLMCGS
Put plainly: Human RNR inhibition effect (dCDP formation from CDP). Particulars: 10 μM CDP, 37° C. for 30 minutes, read-out: RNR inhibitory activity IC50. Format: biochemical. Summed up: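 His-tagged human M1 (isoform 1) and N-terminal 59-aa-truncated M2 (isoform 2), E. coli-expressed, Ni-purified, preincubated 20 min with compound (1% DMSO). Reaction with 10 μM CDP, 2 mM ATP, 0.24 mM NADPH, 6 mM DTT, 4 mM Mg acetate, 100 mM KCl, 50 mM HEPES pH 7.2, 30 min at 37° C. dCDP formed quantified by reverse-phase HPLC after heat stop.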
As for `Cc1ccc(F)c([C@@H](C)[C@H](NS(=O)(=O)c2ccc(F)c(S(C)(=O)=O)c2)c2n[nH]c(=O)o2)c1C` [Example 169, 4-fluoro-N-((1S,2R)-2-(6-fluoro-2,3-dimethylphenyl)-1-(5-oxo-4,5-dihydro-1,3,4-oxadiazol-2-yl)propyl)-3-(methylsulfonyl)benzenesulfonamide], the IC50 (as a rule, the concentration that gives 50% inhibition) was 190 nM.

For `CC(=O)c1cc(Cl)ccc1S(=O)(=O)N[C@H](c1n[nH]c(=O)o1)[C@H](C)c1c(F)ccc(C)c1C` [Example 147, 2-acetyl-4-chloro-N-((1S,2R)-2-(6-fluoro-2,3-dimethylphenyl)-1-(5-oxo-4,5-dihydro-1,3,4-oxadiazol-2-yl)propyl)benzenesulfonamide], the 50% inhibitory concentration (IC50) was 270 nM.

Turning to `Cc1ccc(F)c([C@@H](C)[C@H](NS(=O)(=O)c2ccc(Cl)cc2C(N)=S)c2n[nH]c(=O)o2)c1C` [Example 287, 5-chloro-2-(N-((1S,2R)-2-(6-fluoro-2,3-dimethylphenyl)-1-(5-oxo-4,5-dihydro-1,3,4-oxadiazol-2-yl)propyl)sulfamoyl)benzothioamide], the IC50 is 50 nM.

For `C[C@H](c1cccc2c1CCC2)[C@H](NS(=O)(=O)c1ccc(Cl)c(C(C)(C)O)n1)c1n[nH]c(=O)o1` [Example 192, 5-chloro-N-((1S,2R)-2-(2,3-dihydro-1H-inden-4-yl)-1-(5-oxo-4,5-dihydro-1,3,4-oxadiazol-2-yl)propyl)-6-(2-hydroxypropan-2-yl)pyridine-2-sulfonamide], the half-maximal inhibitory concentration (IC50) worked out at 440 nM.

As to `COC(=O)c1cc(Cl)c(N)cc1S(=O)(=O)N[C@H](c1n[nH]c(=O)o1)[C@H](C)c1c(F)ccc(C)c1C` [Example 272, methyl 4-amino-5-chloro-2-(N-((1S,2R)-2-(6-fluoro-2,3-dimethylphenyl)-1-(5-oxo-4,5-dihydro-1,3,4-oxadiazol-2-yl)propyl)sulfamoyl)benzoate], the 50% inhibitory concentration (IC50) came to 660 nM.

Regarding `Cc1ccc(F)c([C@@H](C)[C@H](NS(=O)(=O)c2ccc(Cl)c(C(=O)N3CCCC3)n2)c2n[nH]c(=O)o2)c1C` [Example 114, 5-chloro-N-((1S,2R)-2-(6-fluoro-2,3-dimethylphenyl)-1-(5-oxo-4,5-dihydro-1,3,4-oxadiazol-2-yl)propyl)-6-(pyrrolidine-1-carbonyl)pyridine-2-sulfonamide], the 50% inhibitory concentration (IC50) came out at 60 nM.

As to `Cc1c(Br)ccc(F)c1[C@@H](C)[C@H](NS(=O)(=O)c1ccc(F)c2c1OCCC2(C)O)c1n[nH]c(=O)o1` (single isomer, unassigned) [Example 227B], the IC50 came out at 90 nM.

Take `Cc1ccc(F)c([C@@H](C)[C@H](NS(=O)(=O)c2ccc(Cl)c(-c3cnn(C)c3)c2)c2n[nH]c(=O)o2)c1C` [Example 325, 4-chloro-N-((1S,2R)-2-(6-fluoro-2,3-dimethylphenyl)-1-(5-oxo-4,5-dihydro-1,3,4-oxadiazol-2-yl)propyl)-3-(1-methyl-1H-pyrazol-4-yl)benzenesulfonamide]: the IC50 was 220 nM.

Take `CCc1ccc(F)c([C@@H](C)[C@H](NS(=O)(=O)c2ccc(Cl)c(C(C)O)c2OC)c2n[nH]c(=O)o2)c1C` (stereo partly drawn) [Example 206A, 4-chloro-N-((1S,2R)-2-(3-ethyl-6-fluoro-2-methylphenyl)-1-(5-oxo-4,5-dihydro-1,3,4-oxadiazol-2-yl)propyl)-3-(1-hydroxyethyl)-2-methoxybenzenesulfonamide]: the IC50 worked out at 150 nM.

In the case of `COc1cc(Cl)ccc1S(=O)(=O)N[C@H](c1n[nH]c(=O)o1)[C@H](C)c1c(F)ccc(C#N)c1C` [Example 104, 4-chloro-N-((1S,2R)-2-(3-cyano-6-fluoro-2-methylphenyl)-1-(5-oxo-4,5-dihydro-1,3,4-oxadiazol-2-yl)propyl)-2-methoxybenzenesulfonamide], the half-maximal inhibitory concentration (IC50) came to 840 nM.

With `COc1cc(Cl)ccc1S(=O)(=O)N[C@H](c1n[nH]c(=O)o1)[C@H](C)c1c(F)ccc(-c2ccc(Cl)cc2)c1C` [Example 302, 4-chloro-N-((1S,2R)-2-(4′-chloro-4-fluoro-2-methyl-[1,1′-biphenyl]-3-yl)-1-(5-oxo-4,5-dihydro-1,3,4-oxadiazol-2-yl)propyl)-2-methoxybenzenesulfonamide], the IC50 worked out at 490 nM.

`Cc1ccc(F)c([C@@H](C)[C@H](NS(=O)(=O)c2ccc(F)c3c2OCCC3O)c2n[nH]c(=O)o2)c1C` (stereo partly drawn) [Example 241, 5-fluoro-N-((1S,2R)-2-(6-fluoro-2,3-dimethylphenyl)-1-(5-oxo-4,5-dihydro-1,3,4-oxadiazol-2-yl)propyl)-4-hydroxychroman-8-sulfonamide]: the IC50 stood at 140 nM.

On to `Cc1ccc(F)c([C@@H](C)[C@H](NS(=O)(=O)c2ccc(Cl)c(C(=O)N3CC4CCC(C3)O4)n2)c2n[nH]c(=O)o2)c1C` [Example 117, 6-(8-oxa-3-azabicyclo[3.2.1]octane-3-carbonyl)-5-chloro-N-((1S,2R)-2-(6-fluoro-2,3-dimethylphenyl)-1-(5-oxo-4,5-dihydro-1,3,4-oxadiazol-2-yl)propyl)pyridine-2-sulfonamide], for which the IC50 came to 30 nM.

In the case of `COc1cc(Cl)ccc1S(=O)(=O)N[C@H](c1n[nH]c(=O)o1)[C@H](C)c1c(C)c(C)cc(F)c1F` [Example 90, 4-chloro-N-((1S,2R)-2-(2,3-difluoro-5,6-dimethylphenyl)-1-(5-oxo-4,5-dihydro-1,3,4-oxadiazol-2-yl)propyl)-2-methoxybenzenesulfonamide], the IC50 was found to be 160 nM.

With `Cc1ccc(F)c([C@@H](C)[C@H](NS(=O)(=O)c2cc(C(=O)N3CCOCC3)ccc2C(N)=O)c2n[nH]c(=O)o2)c1C` [Example 36, 2-(N-((1S,2R)-2-(6-fluoro-2,3-dimethylphenyl)-1-(5-oxo-4,5-dihydro-1,3,4-oxadiazol-2-yl)propyl)sulfamoyl)-4-(morpholine-4-carbonyl)benzamide], the concentration for half-maximal inhibition (IC50) turned out to be 110 nM.

Take `Cc1ccc(F)c([C@@H](C)[C@H](NS(=O)(=O)c2ccc(Cl)c(C(N)=O)n2)c2n[nH]c(=O)o2)c1C` [Example 31, 3-chloro-6-(N-((1S,2R)-2-(6-fluoro-2,3-dimethylphenyl)-1-(5-oxo-4,5-dihydro-1,3,4-oxadiazol-2-yl)propyl)sulfamoyl)picolinamide]: the IC50 came out at 100 nM.

In the case of `COc1cc(C#N)ccc1S(=O)(=O)N[C@H](c1n[nH]c(=O)o1)[C@H](C)c1c(F)ccc(C)c1C` [Example 342, 4-cyano-N-((1S,2R)-(6-fluoro-2,3-dimethylphenyl)-1-(5-oxo-4,5-dihydro-1,3,4-oxadiazol-2-yl)propyl)-2-methoxybenzenesulfonamide], the IC50 worked out at 90 nM.

Turning to `Cc1ccc(F)c([C@@H](C)[C@H](NS(=O)(=O)c2ncc(Cl)cc2C(=O)O)c2n[nH]c(=O)o2)c1C` [Example 213, 5-chloro-2-(N-((1S,2R)-2-(6-fluoro-2,3-dimethylphenyl)-1-(5-oxo-4,5-dihydro-1,3,4-oxadiazol-2-yl)propyl)sulfamoyl)nicotinic acid], the half-maximal inhibitory concentration (IC50) came out at 500 nM.

In the case of `C[C@H](c1c(F)ccc2ccccc12)[C@H](NS(=O)(=O)c1ccc(Cl)cc1C(N)=O)c1n[nH]c(=O)o1` [Example 6, 5-chloro-2-(N-((1S,2R)-2-(2-fluoronaphthalen-1-yl)-1-(5-oxo-4,5-dihydro-1,3,4-oxadiazol-2-yl)propyl)sulfamoyl)benzamide], the IC50 came out at 110 nM.

With `CC(=O)N1CCOc2c(S(=O)(=O)N[C@H](c3n[nH]c(=O)o3)[C@H](C)c3cccc(C)c3C)ccc(Cl)c21` [Example 284, 4-acetyl-5-chloro-N-((1S,2R)-2-(2,3-dimethylphenyl)-1-(5-oxo-4,5-dihydro-1,3,4-oxadiazol-2-yl)propyl)-3,4-dihydro-2H-benzo[b][1,4]oxazine-8-sulfonamide], the half-inhibitory concentration (IC50) was 560 nM.

For `Cc1ccc(F)c([C@@H](C)[C@H](NS(=O)(=O)c2cnc(Cl)cc2C(N)=O)c2n[nH]c(=O)o2)c1C` [Example 40, 2-chloro-5-(N-((1S,2R)-2-(6-fluoro-2,3-dimethylphenyl)-1-(5-oxo-4,5-dihydro-1,3,4-oxadiazol-2-yl)propyl)sulfamoyl)isonicotinamide], the IC50 amounted to 130 nM.

In the case of `Cc1c(Cl)ccc(F)c1[C@@H](C)[C@H](NS(=O)(=O)c1ccc(Cl)c2c1OCCC2(C)O)c1n[nH]c(=O)o1` (single isomer, unassigned) [Example 209B], the half-inhibitory concentration (IC50) was 180 nM.

As for `COC(=O)c1nc(S(=O)(=O)N[C@H](c2n[nH]c(=O)o2)[C@H](C)c2c(F)ccc(C)c2C)ccc1Cl` [Example 109, methyl 3-chloro-6-(N-((1S,2R)-2-(6-fluoro-2,3-dimethylphenyl)-1-(5-oxo-4,5-dihydro-1,3,4-oxadiazol-2-yl)propyl)sulfamoyl)picolinate], the IC50 was 60 nM.
